Three compounds from ChEMBL document CHEMBL1149589, “The influence of the long chain fatty acid on the antagonistic activities of Rhizobium sin-1 lipid A” (Bioorg Med Chem, 2007) can be followed below.

The structures appear in SMILES notation. Activity calls are given as the source filed them. The rule behind the calls is not given here.

In this test the test system is MONO-MAC-6. The test is described as follows: Antagonistic activity against Escherichia coli LPS-induced TNFalpha production in human Mono Mac 6 cells after 5.5 hrs. Type of test: functional, cell-based. The settings on record: for IC50: Homo sapiens, MONO-MAC-6, 5.5 h.

With `CCCCCCCCCCCCCC(=O)O[C@H](CCCCCCCCCCCCC)CC(=O)N[C@H]1[C@H](OC[C@H]2OC(=O)[C@H](NC(=O)C[C@H](O)CCCCCCCCCCCCC)[C@@H](OC(=O)C[C@H](O)CCCCCCCCCCCCC)[C@@H]2O)O[C@H](CO)[C@@H](O)[C@@H]1OC(=O)C[C@H](O)CCCCCCCCCCCCC`, the result was Active.
As for `CCCCCCCCCCCCCCCCCCCCCCCCCCCC(=O)O[C@H](CCCCCCCCCCCCC)CC(=O)N[C@H]1[C@H](OC[C@H]2OC(=O)[C@H](NC(=O)C[C@H](O)CCCCCCCCCCCCC)[C@@H](OC(=O)C[C@H](O)CCCCCCCCCCCCC)[C@@H]2O)O[C@H](CO)[C@@H](O)[C@@H]1OC(=O)C[C@H](O)CCCCCCCCCCCCC`, the IC50 (as a rule, the concentration that gives 50% inhibition) amounted to 7.5 µM.
As for `CCCCCCCCCCCCC[C@@H](O)CC(=O)N[C@H]1C(=O)O[C@H](CO[C@@H]2O[C@H](CO)[C@@H](O)[C@H](OC(=O)C[C@H](O)CCCCCCCCCCCCC)[C@H]2NC(=O)C[C@@H](CCCCCCCCCCCCC)OC(=O)CCCCCCCCCCCCCCCCCCCCCCCCCC(C)O)[C@@H](O)[C@@H]1OC(=O)C[C@H](O)CCCCCCCCCCCCC` (some centres undefined), the Inhibition – broadly, the drop in the measured response relative to a control, in per cent – amounted to 86% and the IC50 was 9.1 µM.
